The target of data set [1] is Cyclin-dependent kinase 2/cyclin A (Homo sapiens, UniProt P24941). The data set is described as follows: Inhibition of CDK2/Cyclin A (unknown origin). In kind it is protein-complex assay.
A further data set deals with Casein kinase 2 (Homo sapiens, UniProt P67870+P68400+P19784+Q8NEV1). The data set is described as follows: Inhibition of CK2 (unknown origin). In kind it is protein assay.
Data set [2] in a line: Metabolic stability in human liver microsome assessed as microsomal clearance. In kind it is ADME. As to conditions: microsomes. Background: Microsomes from liver hold many membrane-bound enzymes, among them those of drug oxidation.
A short description of data set [3]: Metabolic stability in rat liver microsome assessed as microsomal clearance. It is filed as ADME. As to conditions: microsomes.
A further data set concerns the target CDK3/Cyclin E (Homo sapiens, UniProt Q00526). The data set is described as follows: Inhibition of CDK3/cyclin E1 (unknown origin) by ADP-Glo kinase assay. In kind it is protein-complex assay.
Data set [4] can be described thus: Inhibition of MCM2 (unknown origin). The arrangement: species or system Homo sapiens.
Data set [5] has as its target T1, Cell division cycle 7-related protein kinase (Homo sapiens, UniProt O00311). Description: Inhibition of CDC7 (unknown origin).
Data set [6] concerns the target T1, Cell division cycle 7-related protein kinase. Description: Inhibition of GST full length human CDC7 (1 to 574 residues) expressed in baculovirus expression system.

SMILES strings stand for the structures. Where only a bound is given, the exact number is not on record here.

T1 sequence (O00311 whole entry, the tested form may be a part): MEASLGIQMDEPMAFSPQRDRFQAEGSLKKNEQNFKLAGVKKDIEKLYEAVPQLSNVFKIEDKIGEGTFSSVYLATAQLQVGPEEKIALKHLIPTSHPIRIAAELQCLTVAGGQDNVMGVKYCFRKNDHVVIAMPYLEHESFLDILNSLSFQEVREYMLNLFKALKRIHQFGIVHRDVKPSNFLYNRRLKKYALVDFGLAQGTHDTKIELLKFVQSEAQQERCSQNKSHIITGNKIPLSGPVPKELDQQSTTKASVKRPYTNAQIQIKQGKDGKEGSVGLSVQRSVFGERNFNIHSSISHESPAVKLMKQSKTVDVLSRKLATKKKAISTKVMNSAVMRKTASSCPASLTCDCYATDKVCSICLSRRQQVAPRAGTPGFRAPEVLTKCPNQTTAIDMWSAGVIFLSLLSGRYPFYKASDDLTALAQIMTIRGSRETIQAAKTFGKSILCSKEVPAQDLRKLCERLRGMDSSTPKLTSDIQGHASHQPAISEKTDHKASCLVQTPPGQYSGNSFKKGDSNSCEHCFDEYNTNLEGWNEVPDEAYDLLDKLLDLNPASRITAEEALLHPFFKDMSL
CDK3/Cyclin E, sequence (P24864 whole entry): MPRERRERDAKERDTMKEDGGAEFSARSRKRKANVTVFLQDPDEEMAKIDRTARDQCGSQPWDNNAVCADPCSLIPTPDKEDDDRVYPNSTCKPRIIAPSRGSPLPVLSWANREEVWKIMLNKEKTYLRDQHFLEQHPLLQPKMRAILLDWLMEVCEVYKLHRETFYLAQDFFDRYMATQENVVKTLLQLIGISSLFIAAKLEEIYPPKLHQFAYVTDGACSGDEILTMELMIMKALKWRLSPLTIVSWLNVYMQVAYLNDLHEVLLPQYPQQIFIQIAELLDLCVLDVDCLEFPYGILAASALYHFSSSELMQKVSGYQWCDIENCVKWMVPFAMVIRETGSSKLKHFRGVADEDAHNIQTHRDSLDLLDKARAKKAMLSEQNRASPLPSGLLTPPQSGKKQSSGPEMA
CDK3/Cyclin E, sequence (Q00526 whole entry): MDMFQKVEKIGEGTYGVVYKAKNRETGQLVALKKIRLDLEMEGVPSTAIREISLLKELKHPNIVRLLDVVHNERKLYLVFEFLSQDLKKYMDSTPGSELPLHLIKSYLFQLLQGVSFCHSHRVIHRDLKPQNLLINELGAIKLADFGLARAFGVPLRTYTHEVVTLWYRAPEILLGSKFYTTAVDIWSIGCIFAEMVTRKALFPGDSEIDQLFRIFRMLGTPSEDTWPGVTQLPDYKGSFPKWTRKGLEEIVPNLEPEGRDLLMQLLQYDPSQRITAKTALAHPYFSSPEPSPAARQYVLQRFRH

Broadly, the IC50 is the concentration that inhibits the measured activity by half. In data set [1], `NC(=O)c1cc(-c2ccncc2)[nH]c1-c1ccccc1` had a half-maximal inhibitory concentration (IC50) of 1100 nM.

At Casein kinase 2, `O=c1[nH]cnc2c1oc1ccc(Br)cc12` displayed a 50% inhibitory concentration (IC50) of 1500 nM.

In turn, `O=c1[nH]c([C@@H]2CCCN2)nc2c1oc1ccc(Cl)cc12` gave an IC50 against Casein kinase 2 of 215 nM.

In the case of `Nc1nccc(-n2cc(-c3cccnc3Cl)c3cnc(Cl)cc32)n1`, the CLH in data set [2] is 30 µL/min/µg; in data set [3], 102 µL/min/µg.

Take `Nc1nccc(-n2cc(-c3cccnc3Cl)c3cnccc32)n1`: the CLH in data set [2] was 21 µL/min/µg; in data set [3] it was 72 µL/min/µg.

As to `Nc1nccc(-n2ccc3ncccc32)n1`, the CLH was 60 µL/min/µg in data set [2] and 50 µL/min/µg in data set [3].

With `Nc1nccc(-n2ccc3cnccc32)n1`, the CLH in data set [2] stood at 62 µL/min/µg; in data set [3], 101 µL/min/µg.

As to `Cc1n[nH]cc1-c1cc2nc([C@@H]3CCCCN3)[nH]c(=O)c2s1`, the values for the half-maximal inhibitory concentration (IC50) (at CDK3/Cyclin E; in data set [4]) were 6500 nM and 36 nM, respectively.

As for `N[C@H](c1nc2cc(-c3ccncc3F)sc2c(=O)[nH]1)C1CC1`, the IC50 in data set [5] is less than 1000 nM.

With `Cn1nccc1-c1nc(C2CCOCC2)c(Cl)c(=O)[nH]1`, inhibition in data set [6] was half-maximal at 91.2 nM (IC50).

On to `O=c1[nH]c([C@@H]2CC3CCN2CC3)nc2c3c(sc12)-c1c[nH]nc1CCC3`, for which it took 3020 nM to reach half-maximal inhibition in data set [5] (IC50).

In the case of `Cc1[nH]c(=O)c2sc(-c3cn[nH]c3)c3c2c1CCCO3`, in data set [5], the IC50 is less than 1000 nM.

These data come from ChEMBL document CHEMBL6134833, “Recent advances in CDC7 kinase inhibitors: Novel strategies for the treatment of cancers and neurodegenerative diseases” (Eur J Med Chem, 2025).
